{
  "source": "patent US20240091145A1",
  "about": "“DRY MUCO-ADHESIVE COMPOSITIONS AND USE THEREOF” (TECHNION RESEARCH & DEVELOPMENT FOUNDATION LIMITED, priority 2021, published 2024)",
  "key": {"SCC7 cell line": {"tested_on": "SCC7 cell line", "experiment": "Cell viability assay (MTT)", "format": "cell-based, murine", "procedure": "Murine squamous cell carcinoma cell line, SCC7 purchased from Prof. Reinhard Zeidler, at the German Research Center for Environmental Health in Munich, were cultured in DMEM containing 10% v/v FBS and (2 mM) L-glutamine, kept at a temperature of 37° C. and in humidified atmosphere containing 5% v/v CO2 and 95% v/v air. For maintain cell growth, cells were split every 2-3 days using […] trypsin solution for detaching.\nTablets (1×3 mm) containing alginate (0.8, 1.6 mg) and liposomes (0.8 mg) in the form of layered or homogenous, either empty or DOX loaded liposomes were prepared as described above. The final concentration of DOX in each tablet was (1.68 mg mL^−1). To examine the toxicity of the tablets containing the drug on SCC7 cell line, at first cells were seeded at a uniform density of 15,000 cells per well on 96 well plates in […] DMEM medium. On the day of the experiment, medium was replaced with fresh medium containing the tablets, free DOX and in some wells empty fresh medium to serve as control. Cells were incubated for 4, 8, 12, 24, 48 and 72 hr in humidified atmosphere at 37° C. Cells viability was measured using the MTT assay. The medium was removed and (100 μl) of MTT (1 mg mL^−1) in PBS^−1 were added to each well and incubated at 37° C. for 4 hr. […] The absorbance was measured at 570 nm and 690 nm for the background absorbance. […]"}, "OSCC cell line (HSC-2)": {"tested_on": "OSCC cell line (HSC-2)", "conditions": "in vitro; cited from earlier work"}},
  "data": [
    {"compound": "COc1cccc2c1C(=O)c1c(O)c3c(c(O)c1C2=O)C[C@@](O)(C(=O)CO)C[C@@H]3O[C@H]1C[C@H](N)[C@H](O)[C@H](C)O1", "note": "[free DOX, Doxorubicin]", "values": [
      {"measurement": "cell viability", "setting": "SCC7 cell line; SCC7, long times", "value": "3-10%"},
      {"measurement": "cell viability", "setting": "SCC7 cell line; SCC7, short times", "value": "28-40%"},
      {"measurement": "apoptosis induction", "setting": "OSCC cell line (HSC-2)", "value": "induce apoptosis through the activation of caspase-3, -8 and -9"}
    ]}
  ]
}
